Reference: PubChem BioAssay AID720726 (Broad Institute, 2013)
The source made the active and inactive calls.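 Rule for the calls: active = fitted dose curve rising to 40 percent activity within the top usable dose; inconclusive = flat curve between 30 and 70 percent, or poor fit; inactive = the rest, including signal moving the wrong way.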

Test system: not listed separately
Experiment: miR-122 upregulation in Huh7 hepatoma cells – cell-based, qRT-PCR, dry powder, orthogonal assay, dose response (AID 720726)
Details: Huh7 miR-122 levels, qRT-PCR, 48 h; at 30 µM (top of the series)

Row | SMILES | miR-122 fold change
1 | CN1C(=O)c2cc(NC(=O)c3cccc(F)c3)ccc2OC[C@@H]2O[C@@H](CC(=O)O)CC[C@H]21 | 0.927 fold change (inactive)

Same assay, conditions: Huh7 miR-122 levels, qRT-PCR, 48 h; at 35 µM (top of the series)

Row | SMILES | miR-122 fold change
2 | CCOC(=O)N1CCC(NC(=O)c2ccc3nc(N4CCC(C)CC4)sc3c2)CC1 | 1 fold change (inactive)
3 | CCOC(=O)N1CCC(NC(=O)c2ccc3c(c2)sc2nc(-c4ccccc4)cn23)CC1 | 0.356 fold change (inactive)
4 | CN(C)CCN1C(=O)c2cccc3cc(N)cc(c23)C1=O | 0.364 fold change (inactive)
5 | C[C@@H]1CN([C@@H](C)CO)S(=O)(=O)c2ccc(C#Cc3ccncc3)cc2O[C@@H]1CN(C)C(=O)C1CCOCC1 | 0.563 fold change (inactive)
6 | COc1cccc(-c2ccc3c(c2)O[C@H](CN(C)C(=O)C2CCOCC2)[C@H](C)CN([C@@H](C)CO)S3(=O)=O)c1 | 0.896 fold change (inactive)
7 | COc1ccc(-c2cnc3c(c2)C(=O)N([C@@H](C)CO)C[C@H](C)[C@H](CN(C)S(=O)(=O)c2ccc(OC)cc2)O3)cc1 | 1.26 fold change (inactive)
8 | CCCCN(CCCC)C(=O)CN(C)S(=O)(=O)c1ccc2c(c1)n(C)c(=O)c(=O)n2C | 0.906 fold change (inactive)
9 | O=C(NCc1ccccc1Cl)c1ccc(CNc2c(NC3CCCCC3)c(=O)c2=O)cc1 | 0.171 fold change (inactive)
10 | COc1cccc(C(=O)Nc2ccc3c(c2)C(=O)N(C)C[C@@H](OC)[C@@H](C)CN[C@@H](C)CO3)c1 | 1.15 fold change (inactive)
11 | C[C@@H]1CN([C@H](C)CO)S(=O)(=O)c2ccc(/C=C/c3ccccc3)cc2O[C@@H]1CN(C)C(=O)c1cccnc1 | 1.11 fold change (inactive)
12 | C[C@H]1CN([C@@H](C)CO)C(=O)c2cc(C#Cc3ccccc3F)cnc2O[C@H]1CN(C)C(=O)C1CCCCC1 | 0.569 fold change (inactive)
13 | CCn1cc(C(=O)O)c(=O)c2cc(F)c(N3CCNCC3)nc21 | 0.972 fold change (inactive)
14 | O=S(=O)(NCCc1ccncc1)c1ccccc1 | 1.01 fold change (inactive)
15 | O=C(NCCC1=CCCCC1)c1ccc2c(c1)sc1nc(-c3ccccc3)cn12 | 0.828 fold change (inactive)
16 | C[C@H]1CN([C@@H](C)CO)S(=O)(=O)c2ccc(C#Cc3ccncc3)cc2O[C@H]1CN(C)C(=O)C1CCOCC1 | 0.373 fold change (inactive)
17 | CN1C(=O)c2cc(NC(=O)c3cccc(F)c3)ccc2OC[C@@H]2O[C@H](CC(=O)O)CC[C@H]21 | 0.958 fold change (inactive)
18 | COCC(=O)N(C)C[C@H]1Oc2cc(-c3ccc(C#N)cc3)ccc2S(=O)(=O)N([C@H](C)CO)C[C@H]1C | 0.895 fold change (inactive)
19 | Cc1cccc(NC(=O)Nc2ccc3c(c2)C(=O)N(C)[C@@H]2CC[C@@H](CC(=O)NCc4ccccc4Cl)O[C@H]2CO3)c1 | 1.25 fold change (inactive)
20 | CO[C@@H]1CN(C)C(=O)c2cc(NC(=O)c3ccc4c(c3)OCO4)ccc2OC[C@H](C)NC[C@@H]1C | 1.02 fold change (inactive)
21 | O=C(CN=C1NS(=O)(=O)c2ccccc21)Nc1ccccc1N1CCCCCC1 | 1.09 fold change (inactive)

Row | SMILES | miR-122 fold change
22 | C[C@H]1CN([C@@H](C)CO)S(=O)(=O)c2ccc(C#Cc3ccncc3)cc2O[C@@H]1CN(C)C(=O)C1CCOCC1 | 0.399 fold change (inactive)
23 | C[C@@H]1CN([C@@H](C)CO)S(=O)(=O)c2ccc(C#Cc3ccncc3)cc2O[C@H]1CN(C)C(=O)C1CCOCC1 | 0.639 fold change (inactive)
24 | O=C(CNCCC1=CCCCC1)Nc1ccccc1N1CCCCCC1 | 0.489 fold change (inactive)
25 | CN1C(=O)c2cc(NC(=O)c3cccc(F)c3)ccc2OC[C@H]2O[C@H](CC(=O)O)CC[C@H]21 | 0.909 fold change (inactive)
26 | Cc1cc(C(C)(C)C)cc(S(=O)(=O)NCCc2ccncc2)c1C | 1.04 fold change (inactive)
27 | Cn1c(=O)c(=O)n(C)c2cc(S(=O)(=O)N3CCOCC3)ccc21 | 1.28 fold change (inactive)
28 | C[C@H]1CN([C@@H](C)CO)C(=O)c2cc(C#Cc3ccccc3F)cnc2O[C@@H]1CN(C)C(=O)C1CCCCC1 | 0.164 fold change (inactive)
29 | Cc1cc(C(C)(C)C)cc(S(=O)(=O)N2CCOCC2)c1C | 0.977 fold change (inactive)
30 | Nc1ccc(Oc2ccc(Cl)cc2)cc1 | 0.496 fold change (inactive)
31 | C[C@H](CO)N1C[C@H](C)[C@H](CN(C)C(=O)C2CCOCC2)Oc2cc(C#Cc3ccncc3)ccc2S1(=O)=O | 0.417 fold change (inactive)
32 | COCC(=O)N(C)C[C@@H]1Oc2ncc(-c3ccc(C#N)cc3)cc2C(=O)N([C@@H](C)CO)C[C@@H]1C | 1.01 fold change (inactive)
33 | O=C(Nc1ccc(-c2nc3ccccc3o2)cc1)c1cc(-n2cnnc2)ccc1Cl | 0.17 fold change (inactive)
34 | O=C(c1ccc(CNc2c(NC3CCCCC3)c(=O)c2=O)cc1)N1CCc2ccccc21 | 0.521 fold change (inactive)
35 | Nc1ccc(Oc2ccc(Br)cc2)cc1 | 0.505 fold change (inactive)
36 | O=C(c1ccc(CN2CCOCC2)cc1)N1CCc2ccccc21 | 1 fold change (inactive)
37 | CN1C(=O)c2cc(NC(=O)c3cccc(F)c3)ccc2OC[C@H]2O[C@@H](CC(=O)O)CC[C@H]21 | 1.38 fold change (inactive)
38 | COCC(=O)N(C)C[C@H]1Oc2cc(C#Cc3cccnc3)ccc2S(=O)(=O)N([C@@H](C)CO)C[C@H]1C | 0.983 fold change (inactive)
39 | CCN(CC)C(=O)c1cccc(NC(=O)c2ccc(Cl)cc2Cl)c1 | 0.931 fold change (inactive)
40 | COCC(=O)N(C)C[C@H]1Oc2cc(-c3ccc(C#N)cc3)ccc2S(=O)(=O)N([C@@H](C)CO)C[C@H]1C | 1.17 fold change (inactive)
41 | CO[C@@H]1CN(C)C(=O)c2cc(NS(=O)(=O)c3ccc(Oc4ccccc4)cc3)ccc2OC[C@H](C)NC[C@@H]1C | 0.882 fold change (inactive)

Row | SMILES | miR-122 fold change
42 | CN1C(=O)c2cc(NC(=O)c3cccc(F)c3)ccc2OC[C@H]2O[C@@H](CC(=O)O)CC[C@@H]21 | 1.24 fold change (inactive)
43 | CN(C)CCCOc1nn(Cc2ccccc2)c2ccccc12 | 1.5 fold change (inactive)
44 | CN1C(=O)c2cc(NC(=O)c3cccc(F)c3)ccc2OC[C@@H]2O[C@H](CC(=O)O)CC[C@@H]21 | 0.92 fold change (inactive)
45 | CNC[C@@H]1Oc2cc(C#CC3CCCCC3)ccc2S(=O)(=O)N([C@@H](C)CO)C[C@@H]1C | 1.07 fold change (inactive)
46 | C[C@H]1CN([C@@H](C)CO)C(=O)c2cc(-c3ccc(C#N)cc3)cnc2O[C@H]1CN(C)C(=O)Nc1ccc(C(F)(F)F)cc1 | 0.749 fold change (inactive)
47 | COCC(=O)N(C)C[C@H]1Oc2cc(-c3ccccc3F)ccc2S(=O)(=O)N([C@@H](C)CO)C[C@H]1C | 0.823 fold change (inactive)
48 | CN1C(=O)c2cc(NC(=O)c3cccc(F)c3)ccc2OC[C@H]2O[C@H](CC(=O)O)CC[C@@H]21 | 0.869 fold change (inactive)
49 | C[C@H]1CN([C@@H](C)CO)C(=O)c2cc(-c3ccc(C#N)cc3)cnc2O[C@H]1CN(C)Cc1cncnc1 | 0.987 fold change (inactive)
50 | C/C=C/c1cnc2c(c1)C(=O)N([C@@H](C)CO)C[C@H](C)[C@H](CN(C)S(=O)(=O)c1ccc(OC)cc1)O2 | 1.05 fold change (inactive)
51 | CN1C(=O)c2cc(NC(=O)c3cccc(F)c3)ccc2OC[C@@H]2O[C@@H](CC(=O)O)CC[C@@H]21 | 0.94 fold change (inactive)
52 | COc1ccc(S(=O)(=O)N(C)C[C@@H]2Oc3ncc(/C=C/c4ccccc4)cc3C(=O)N([C@@H](C)CO)C[C@@H]2C)cc1 | 0.9 fold change (inactive)
53 | C[C@@H]1CN([C@H](C)CO)S(=O)(=O)c2ccc(C#Cc3ccncc3)cc2O[C@H]1CN(C)C(=O)C1CCOCC1 | 0.486 fold change (inactive)
54 | CN(CC(=O)Nc1cccc(Cl)c1)S(=O)(=O)c1ccc2c(c1)n(C)c(=O)c(=O)n2C | 1.27 fold change (inactive)
55 | C[C@H]1CN([C@@H](C)CO)C(=O)c2cc(-c3ccc(C#N)cc3)cnc2O[C@H]1CN(C)C(=O)c1ccccc1 | 1.14 fold change (inactive)
56 | OCc1ccc(-c2nn(Cc3ccccc3)c3ccccc23)o1 | 0.428 fold change (inactive)
57 | C[C@H](CO)N1C[C@H](C)[C@@H](CN(C)C(=O)C2CCOCC2)Oc2cc(C#Cc3ccncc3)ccc2S1(=O)=O | 0.407 fold change (inactive)
58 | C[C@@H]1CN([C@H](C)CO)S(=O)(=O)c2ccc(C#Cc3ccncc3)cc2O[C@@H]1CN(C)C(=O)C1CCOCC1 | 0.732 fold change (inactive)
59 | CO[C@@H]1CN(C)C(=O)c2cc(NC(=O)c3cccc(Oc4ccccc4)c3)ccc2OC[C@H](C)NC[C@@H]1C | 0.113 fold change (inactive)

Test system: Huh7 miR-122 levels, qRT-PCR, 48 h
Experiment: as above
Details: not given

Row | SMILES | AC40
60 | Cc1cccc(NC(=O)Nc2ccc3c(c2)C(=O)N(C)[C@@H]2CC[C@H](CC(=O)NCc4ccccc4Cl)O[C@H]2CO3)c1 | 8.38 µM
61 | CCCC#Cc1ccc2c(c1)O[C@H](CN(C)C(=O)COC)[C@H](C)CN([C@@H](C)CO)S2(=O)=O | 23.9 µM
62 | COCC(=O)N(C)C[C@H]1Oc2cc(-c3ccccc3F)ccc2S(=O)(=O)N([C@H](C)CO)C[C@H]1C | 18.9 µM
63 | CCCC#Cc1ccc2c(c1)O[C@H](CN(C)C(=O)c1ccncc1)[C@H](C)CN([C@@H](C)CO)S2(=O)=O | 3.54 µM
64 | COCC(=O)N(C)C[C@H]1Oc2cc(C#Cc3cccnc3)ccc2S(=O)(=O)N([C@H](C)CO)C[C@H]1C | 16.9 µM
